Results reported in article PMC7317746 (Environmental and Molecular Mutagenesis, 2020).

Test system: male Sprague Dawley rats
Experiment: Pig‐a assay
Type: in vivo, rat
[1] = 1-Month Study, 1,000 mg/kg/day, Day 15
[2] = 1-Month Study, 1,000 mg/kg/day, Day 29
[3] = 1-Month Study, 1,000 mg/kg/day, Day -1 (pre-treatment)
[4] = 2-Week Study, 250 mg/kg/day Days 1-15, Day 16
[5] = 2-Week Study, 500 mg/kg/day Days 1-15, Day 16
[6] = 2-Week Study, 1,000 mg/kg/day Days 1-15, Day 16
[7] = 3-Day Study, 500 mg/kg/day Days 1-3, Day 15
[8] = 3-Day Study, 500 mg/kg/day Days 1-3, Day 30
[9] = 3-Day Study, 500 mg/kg/day Days 1-3, Day 45
[10] = 3-Day Study, 500 mg/kg/day, Day -4 (pre-treatment)
[11] = 3-Day Study, 1,000 mg/kg/day Days 1-3, Day 15
[12] = 3-Day Study, 1,000 mg/kg/day Days 1-3, Day 30
[13] = 3-Day Study, 1,000 mg/kg/day Days 1-3, Day 45
[14] = 3-Day Study, 1,000 mg/kg/day, Day -4 (pre-treatment)
[15] = 3-Day Study, 2,000 mg/kg/day Days 1-3, Day 15
[16] = 3-Day Study, 2,000 mg/kg/day Days 1-3, Day 30
[17] = 3-Day Study, 2,000 mg/kg/day Days 1-3, Day 45
[18] = 3-Day Study, 2,000 mg/kg/day, Day -4 (pre-treatment)

CC(=O)Nc1ccc(O)cc1 [acetaminophen, Acetaminophen]
Number of CD59‐Neg RETs per 10^6 RETs mean ± SD (1-Month Study, 1,000 mg/kg/day Days 1-29, Day 57 recovery group): 0.5 ± 0.4 per 10^6 RETs
%RETs mean ± SD [1]: 2.8 ± 1.4%
Number of CD59‐Neg RBCs per 10^6 RBCs mean ± SD [1]: 0.6 ± 0.4 per 10^6 RBCs
Number of CD59‐Neg RETs per 10^6 RETs mean ± SD [1]: 1.6 ± 1.5 per 10^6 RETs
%RETs mean ± SD [2]: 2.4 ± 0.9%
Number of CD59‐Neg RBCs per 10^6 RBCs mean ± SD [2]: 1.6 ± 1.6 per 10^6 RBCs
Number of CD59‐Neg RETs per 10^6 RETs mean ± SD [2]: 4.5 ± 5.9 per 10^6 RETs
%RETs mean ± SD [3]: 4.6 ± 0.6%
Number of CD59‐Neg RBCs per 10^6 RBCs mean ± SD [3]: 0.5 ± 0.3 per 10^6 RBCs
Number of CD59‐Neg RETs per 10^6 RETs mean ± SD [3]: 0.7 ± 0.7 per 10^6 RETs
%RETs mean ± SD [4]: 2.7 ± 1.0%
Number of CD59‐Neg RBCs per 10^6 RBCs mean ± SD [4]: 0.7 ± 0.3 per 10^6 RBCs
Number of CD59‐Neg RETs per 10^6 RETs mean ± SD [4]: 1.4 ± 1.1 per 10^6 RETs
%RETs mean ± SD [5]: 2.4 ± 0.8 %
Number of CD59‐Neg RBCs per 10^6 RBCs mean ± SD [5]: 1.1 ± 1.7 per 10^6 RBCs
Number of CD59‐Neg RETs per 10^6 RETs mean ± SD [5]: 0.4 ± 0.4 per 10^6 RETs
%RETs mean ± SD [6]: 3.4 ± 0.7%
Number of CD59‐Neg RBCs per 10^6 RBCs mean ± SD [6]: 0.5 ± 0.3 per 10^6 RBCs
Number of CD59‐Neg RETs per 10^6 RETs mean ± SD [6]: 1.1 ± 0.9 per 10^6 RETs
%RETs mean ± SD [7]: 3.6 ± 0.6%
Number of CD59‐Neg RBCs per 10^6 RBCs mean ± SD [7]: 0.4 ± 0.2 per 10^6 RBCs
Number of CD59‐Neg RETs per 10^6 RETs mean ± SD [7]: 0.9 ± 0.7 per 10^6 RETs
%RETs mean ± SD [8]: 3.1 ± 0.2%
Number of CD59‐Neg RBCs per 10^6 RBCs mean ± SD [8]: 0.5 ± 0.3 per 10^6 RBCs
Number of CD59‐Neg RETs per 10^6 RETs mean ± SD [8]: 1.2 ± 1.2 per 10^6 RETs
%RETs mean ± SD [9]: 2.7 ± 0.4%
Number of CD59‐Neg RBCs per 10^6 RBCs mean ± SD [9]: 0.4 ± 0.2 per 10^6 RBCs
Number of CD59‐Neg RETs per 10^6 RETs mean ± SD [9]: 0.7 ± 1.3 per 10^6 RETs
%RETs mean ± SD [10]: 3.3 ± 0.8%
Number of CD59‐Neg RBCs per 10^6 RBCs mean ± SD [10]: 0.4 ± 0.2 per 10^6 RBCs
Number of CD59‐Neg RETs per 10^6 RETs mean ± SD [10]: 2.0 ± 2.1 per 10^6 RETs
%RETs mean ± SD [11]: 4.8 ± 0.8 %
Number of CD59‐Neg RBCs per 10^6 RBCs mean ± SD [11]: 0.6 ± 0.2 per 10^6 RBCs
Number of CD59‐Neg RETs per 10^6 RETs mean ± SD [11]: 1.8 ± 2.4 per 10^6 RETs
%RETs mean ± SD [12]: 3.3 ± 0.4%
Number of CD59‐Neg RBCs per 10^6 RBCs mean ± SD [12]: 0.8 ± 0.4 per 10^6 RBCs
Number of CD59‐Neg RETs per 10^6 RETs mean ± SD [12]: 1.5 ± 1.8 per 10^6 RETs
%RETs mean ± SD [13]: 2.9 ± 0.3%
Number of CD59‐Neg RBCs per 10^6 RBCs mean ± SD [13]: 1.1 ± 1.1 per 10^6 RBCs
Number of CD59‐Neg RETs per 10^6 RETs mean ± SD [13]: 2.0 ± 2.1 per 10^6 RETs
%RETs mean ± SD [14]: 3.6 ± 0.8%
Number of CD59‐Neg RBCs per 10^6 RBCs mean ± SD [14]: 0.4 ± 0.2 per 10^6 RBCs
Number of CD59‐Neg RETs per 10^6 RETs mean ± SD [14]: 1.2 ± 0.5 per 10^6 RETs
%RETs mean ± SD [15]: 5.7 ± 0.4 %
Number of CD59‐Neg RBCs per 10^6 RBCs mean ± SD [15]: 2.9 ± 6.1 per 10^6 RBCs
Number of CD59‐Neg RETs per 10^6 RETs mean ± SD [15]: 11.3 ± 26.2 per 10^6 RETs
%RETs mean ± SD [16]: 3.3 ± 0.6%
Number of CD59‐Neg RBCs per 10^6 RBCs mean ± SD [16]: 32.4 ± 78.4 per 10^6 RBCs
Number of CD59‐Neg RETs per 10^6 RETs mean ± SD [16]: 40.3 ± 98.3 per 10^6 RETs
%RETs mean ± SD [17]: 2.4 ± 0.2 %
Number of CD59‐Neg RBCs per 10^6 RBCs mean ± SD [17]: 38.5 ± 92.8 per 10^6 RBCs
Number of CD59‐Neg RETs per 10^6 RETs mean ± SD [17]: 15.1 ± 36.2 per 10^6 RETs
%RETs mean ± SD [18]: 3.2 ± 0.8%
Number of CD59‐Neg RBCs per 10^6 RBCs mean ± SD [18]: 0.3 ± 0.1 per 10^6 RBCs
Number of CD59‐Neg RETs per 10^6 RETs mean ± SD [18]: 1.2 ± 0.6 per 10^6 RETs
Mutagenicity in the rat Pig‐a model (conclusion) (250-2,000 mg/kg/day, 3-Day, 2-Week and 1-Month Studies): not mutagenic
